Measurements taken from ChEMBL document CHEMBL3885861, “Open TG-GATES”.

Species: Rattus norvegicus
Test: Open TG-GATES - Regimen: Daily Repeat
Format: toxicity, organism-based, Sprague-Dawley
Parameters: regimen Daily Repeat, gender Male, age 6 weeks
Conditions: in vivo, po, 150 mg/kg, route gavage, dose level High; for APTT / Bas / Eos / Fbg / Hb / Ht / Lym / MCH / MCHC / MCV / Mono / Neu / PT / Plat / RBC / Ret / WBC: tissue Blood; for KIDNEY_L / KIDNEY_R / KIDNEY_TOTAL: tissue Kidney; for LIVER: tissue Liver; for A/G / ALP / ALT / AST / BUN / CRE / Ca / Cl / DBIL / GLC / IP / K / LDH / Na / PL / RALB / TBIL / TC / TG / TP / gamma-GTP: tissue Plasma

Molecule `Nc1nc(N)c2nc(-c3ccccc3)c(N)nc2n1` has a TERMINAL_BW (72 h, time 3 day) of 243.7 g, an APTT (72 h, time 3 day) of 16.1 s and a Bas (72 h, time 3 day) of 0%. For the same molecule, the Eos (72 h, time 3 day) was 1%, the Fbg (72 h, time 3 day) was 366.6 mg/dL and the Hb (72 h, time 3 day) was 13.8 g/dL. It also gave a Ht (72 h, time 3 day) of 40.7%, a Lym (72 h, time 3 day) of 76.6% and an MCH (72 h, time 3 day) of 21 pg. For the same molecule, the MCHC (72 h, time 3 day) was 33.8%, the MCV (72 h, time 3 day) was 62 fL and the Mono (72 h, time 3 day) was 2.8%. It also gave a Neu (72 h, time 3 day) of 18.8%, a PT (72 h, time 3 day) of 14 s and a Plat (72 h, time 3 day) of 131.8 x10_4/uL. It also gave an RBC (72 h, time 3 day) of 657.6 x10_4/ul, a Ret (72 h, time 3 day) of 5.1% and a WBC (72 h, time 3 day) of 90.9 x10_2/uL. For the same molecule, the KIDNEY_L (72 h, time 3 day) was 1 g, the KIDNEY_R (72 h, time 3 day) was 1.1 g and the KIDNEY_TOTAL (72 h, time 3 day) was 2.1 g. For the same molecule, the LIVER (72 h, time 3 day) was 11.3 g, the A/G (72 h, time 3 day) was 0.9 and the ALP (72 h, time 3 day) was 1846.8 IU/L. For the same molecule, the ALT (72 h, time 3 day) was 44 IU/L, the AST (72 h, time 3 day) was 67.2 IU/L and the BUN (72 h, time 3 day) was 17.6 mg/dL. For the same molecule, the CRE (72 h, time 3 day) was 0.2 mg/dL, the Ca (72 h, time 3 day) was 11.1 mg/dL and the Cl (72 h, time 3 day) was 105.8 meq/L. It also gave a DBIL (72 h, time 3 day) of 0.008 mg/dL, a GLC (72 h, time 3 day) of 180.6 mg/dL and an IP (72 h, time 3 day) of 7.9 mg/dL. It also gave a K (72 h, time 3 day) of 3.9 meq/L, an LDH (72 h, time 3 day) of 59 IU/L and a Na (72 h, time 3 day) of 143.6 meq/L. It also gave a PL (72 h, time 3 day) of 171 mg/dL, an RALB (72 h, time 3 day) of 2.6 g/dL and a TBIL (72 h, time 3 day) of 0.032 mg/dL. The TC (72 h, time 3 day) was 90.6 mg/dL, the TG (72 h, time 3 day) was 120.8 mg/dL and the TP (72 h, time 3 day) was 5.6 g/dL. The gamma-GTP (72 h, time 3 day) was 1 IU/L, the TERMINAL_BW ([…], time 7 day) was 274.8 g and the TERMINAL_BW ([…], time 14 day) was 323.6 g. The TERMINAL_BW ([…], time 28 day) was 378.7 g, the APTT ([…], time 7 day) was 16.4 s and the Bas ([…], time 7 day) was 0.2%. For the same molecule, the Eos ([…], time 7 day) was 1%, the Fbg ([…], time 7 day) was 354.2 mg/dL and the Hb ([…], time 7 day) was 13.5 g/dL. It also gave a Ht ([…], time 7 day) of 41.1%, a Lym ([…], time 7 day) of 78.2% and an MCH ([…], time 7 day) of 20.1 pg. For the same molecule, the MCHC ([…], time 7 day) was 32.8%, the MCV ([…], time 7 day) was 61.2 fL and the Mono ([…], time 7 day) was 2.4%. It also gave a Neu ([…], time 7 day) of 18.2%, a PT ([…], time 7 day) of 14.1 s and a Plat ([…], time 7 day) of 132.7 x10_4/uL. The RBC ([…], time 7 day) was 672.4 x10_4/ul, the Ret ([…], time 7 day) was 5.4% and the WBC ([…], time 7 day) was 114.8 x10_2/uL. For the same molecule, the APTT ([…], time 14 day) was 20.2 s, the Bas ([…], time 14 day) was 0% and the Eos ([…], time 14 day) was 1%. For the same molecule, the Fbg ([…], time 14 day) was 329.6 mg/dL, the Hb ([…], time 14 day) was 14.2 g/dL and the Ht ([…], time 14 day) was 43.2%. The Lym ([…], time 14 day) was 77.4%, the MCH ([…], time 14 day) was 19.5 pg and the MCHC ([…], time 14 day) was 33%. It also gave an MCV ([…], time 14 day) of 59.1 fL, a Mono ([…], time 14 day) of 2.2% and a Neu ([…], time 14 day) of 18.8%. It also gave a PT ([…], time 14 day) of 13 s, a Plat ([…], time 14 day) of 113.5 x10_4/uL and an RBC ([…], time 14 day) of 730.6 x10_4/ul. The Ret ([…], time 14 day) was 3.3%, the WBC ([…], time 14 day) was 94.3 x10_2/uL and the APTT ([…], time 28 day) was 18.6 s. For the same molecule, the Bas ([…], time 28 day) was 0.4%, the Eos ([…], time 28 day) was 1% and the Fbg ([…], time 28 day) was 320 mg/dL. It also gave a Hb ([…], time 28 day) of 15 g/dL, a Ht ([…], time 28 day) of 44.1% and a Lym ([…], time 28 day) of 78.8%. For the same molecule, the MCH ([…], time 28 day) was 18.6 pg, the MCHC ([…], time 28 day) was 33.9% and the MCV ([…], time 28 day) was 54.9 fL. For the same molecule, the Mono ([…], time 28 day) was 2.2%, the Neu ([…], time 28 day) was 16.8% and the PT ([…], time 28 day) was 13.3 s. It also gave a Plat ([…], time 28 day) of 127.8 x10_4/uL, an RBC ([…], time 28 day) of 803.2 x10_4/ul and a Ret ([…], time 28 day) of 2.1%. It also gave a WBC ([…], time 28 day) of 110.6 x10_2/uL, a KIDNEY_L ([…], time 7 day) of 1.3 g and a KIDNEY_R ([…], time 7 day) of 1.3 g. For the same molecule, the KIDNEY_TOTAL ([…], time 7 day) was 2.6 g, the KIDNEY_L ([…], time 14 day) was 1.4 g and the KIDNEY_R ([…], time 14 day) was 1.4 g. It also gave a KIDNEY_TOTAL ([…], time 14 day) of 2.8 g, a KIDNEY_L ([…], time 28 day) of 1.7 g and a KIDNEY_R ([…], time 28 day) of 1.7 g. For the same molecule, the KIDNEY_TOTAL ([…], time 28 day) was 3.4 g, the LIVER ([…], time 7 day) was 12.6 g and the LIVER ([…], time 14 day) was 13.2 g. It also gave an LIVER ([…], time 28 day) of 14.1 g, an A/G ([…], time 7 day) of 0.9 and an ALP ([…], time 7 day) of 1286 IU/L. For the same molecule, the ALT ([…], time 7 day) was 41.2 IU/L, the AST ([…], time 7 day) was 63.2 IU/L and the BUN ([…], time 7 day) was 18.8 mg/dL. It also gave a CRE ([…], time 7 day) of 0.2 mg/dL, a Ca ([…], time 7 day) of 11 mg/dL and a Cl ([…], time 7 day) of 104.2 meq/L. The DBIL ([…], time 7 day) was 0.014 mg/dL, the GLC ([…], time 7 day) was 188 mg/dL and the IP ([…], time 7 day) was 7.7 mg/dL. It also gave a K ([…], time 7 day) of 4 meq/L, an LDH ([…], time 7 day) of 62 IU/L and a Na ([…], time 7 day) of 143 meq/L. For the same molecule, the PL ([…], time 7 day) was 149.6 mg/dL, the RALB ([…], time 7 day) was 2.6 g/dL and the TBIL ([…], time 7 day) was 0.072 mg/dL. It also gave a TC ([…], time 7 day) of 77 mg/dL, a TG ([…], time 7 day) of 126.8 mg/dL and a TP ([…], time 7 day) of 5.6 g/dL. The gamma-GTP ([…], time 7 day) was 1.2 IU/L, the A/G ([…], time 14 day) was 0.8 and the ALP ([…], time 14 day) was 1273.4 IU/L. It also gave an ALT ([…], time 14 day) of 41.6 IU/L, an AST ([…], time 14 day) of 66.4 IU/L and a BUN ([…], time 14 day) of 21.4 mg/dL. For the same molecule, the CRE ([…], time 14 day) was 0.3 mg/dL, the Ca ([…], time 14 day) was 10.4 mg/dL and the Cl ([…], time 14 day) was 105.8 meq/L. For the same molecule, the DBIL ([…], time 14 day) was 0.012 mg/dL, the GLC ([…], time 14 day) was 185.2 mg/dL and the IP ([…], time 14 day) was 7.5 mg/dL. The K ([…], time 14 day) was 3.7 meq/L, the LDH ([…], time 14 day) was 58.2 IU/L and the Na ([…], time 14 day) was 145 meq/L. It also gave a PL ([…], time 14 day) of 143.2 mg/dL, an RALB ([…], time 14 day) of 2.7 g/dL and a TBIL ([…], time 14 day) of 0.07 mg/dL. For the same molecule, the TC ([…], time 14 day) was 75 mg/dL, the TG ([…], time 14 day) was 101.6 mg/dL and the TP ([…], time 14 day) was 5.9 g/dL. The gamma-GTP ([…], time 14 day) was 1.2 IU/L, the A/G ([…], time 28 day) was 0.8 and the ALP ([…], time 28 day) was 1120 IU/L. It also gave an ALT ([…], time 28 day) of 41.8 IU/L, an AST ([…], time 28 day) of 65.6 IU/L and a BUN ([…], time 28 day) of 21.4 mg/dL. The CRE ([…], time 28 day) was 0.3 mg/dL, the Ca ([…], time 28 day) was 10.7 mg/dL and the Cl ([…], time 28 day) was 106 meq/L. It also gave a DBIL ([…], time 28 day) of 0.008 mg/dL, a GLC ([…], time 28 day) of 178.2 mg/dL and an IP ([…], time 28 day) of 6.7 mg/dL. It also gave a K ([…], time 28 day) of 3.7 meq/L, an LDH ([…], time 28 day) of 44.6 IU/L and a Na ([…], time 28 day) of 144.8 meq/L. The PL ([…], time 28 day) was 160.4 mg/dL, the RALB ([…], time 28 day) was 2.7 g/dL and the TBIL ([…], time 28 day) was 0.064 mg/dL. For the same molecule, the TC ([…], time 28 day) was 85.2 mg/dL, the TG ([…], time 28 day) was 106.2 mg/dL and the TP ([…], time 28 day) was 6.1 g/dL. It also gave a gamma-GTP ([…], time 28 day) of 1.4 IU/L.
